In ChEMBL document CHEMBL3808316, “Design, synthesis and biological evaluation of novel tetrahydroisoquinoline quaternary derivatives as peripheral κ-opioid receptor agonists” (Bioorg Med Chem, 2016):

Key:
[1] = molecular target: Mu-type opioid receptor (Rattus norvegicus) (UniProt P33535); test: Displacement of [3H]diprenorphine from rat mu opioid receptor expressed in CHO cell membranes at 10^-5 M after 30 mins by liquid scintillation counting analysis
[2] = molecular target: Mu-type opioid receptor (Rattus norvegicus) (UniProt P33535); test: Displacement of [3H]diprenorphine from rat mu opioid receptor expressed in CHO cell membranes at 10^-6 M after 30 mins by liquid scintillation counting analysis
[3] = molecular target: T1, Kappa-type opioid receptor (Homo sapiens, UniProt P41145); test: Displacement of [3H]diprenorphine from human kappa opioid receptor expressed in CHO cell membranes at 10^-5 M after 30 mins by liquid scintillation counting analysis
[4] = molecular target: T1, Kappa-type opioid receptor; test: Displacement of [3H]diprenorphine from human kappa opioid receptor expressed in CHO cell membranes at 10^-6 M after 30 mins by liquid scintillation counting analysis
[5] = molecular target: T1, Kappa-type opioid receptor; test: Displacement of [3H]diprenorphine from human kappa opioid receptor expressed in CHO cell membranes after 30 mins by liquid scintillation counting analysis
[6] = tested on: Mus musculus; test: Sedative activity in sc dosed Kunming mouse assessed as crossing number at 50 ug/kg after 45 mins by open field test (reference value: 155 +/- 34); type: ADME, organism-based; settings: in vivo, 0.05 mg/kg, 0.75 h
[7] = tested on: Mus musculus; test: Sedative activity in sc dosed Kunming mouse assessed as crossing number at 100 ug/kg after 45 mins by open field test (reference value: 155 +/- 34); type: ADME, organism-based; settings: in vivo, 0.1 mg/kg, 0.75 h
[8] = tested on: Mus musculus; test: Sedative activity in sc dosed Kunming mouse assessed as crossing number at 200 ug/kg after 45 mins by open field test (reference value: 155 +/- 34); type: ADME, organism-based; settings: in vivo, 0.2 mg/kg, 0.75 h
[9] = tested on: Mus musculus; test: Potency index, ratio of antinociceptive ED50 for U50488H to antinociceptive ED50 for test compound in ip dosed mouse after 20 mins; type: functional
[10] = tested on: Mus musculus; test: Antinociceptive activity in ip dosed mouse assessed as acetic acid induced writhing administered 30 mins prior to acetic acid challenge measured for 20 mins; type: functional
[11] = tested on: Mus musculus; test: Sedative activity in sc dosed Kunming mouse assessed as […] after 20 mins by rotation test; type: ADME, organism-based; settings: in vivo
[12] = tested on: Mus musculus; test: Peripheral restriction index, ratio of sedative ED50 in sc dosed Kunming mouse to antinociceptive ED50 in ip dosed mouse
[13] = tested on: Mus musculus; test: Sedative activity in sc dosed Kunming mouse assessed as center square duration time at 50 ug/kg after 45 mins by open field test (reference value: 13.2 +/- 3.1 secs); type: ADME, organism-based; settings: in vivo, 0.05 mg/kg, 0.75 h
[14] = tested on: Mus musculus; test: Sedative activity in sc dosed Kunming mouse assessed as center square duration time at 100 ug/kg after 45 mins by open field test (reference value: 13.2 +/- 3.1 secs); type: ADME, organism-based; settings: in vivo, 0.1 mg/kg, 0.75 h
[15] = tested on: Mus musculus; test: Sedative activity in sc dosed Kunming mouse assessed as center square duration time at 200 ug/kg after 45 mins by open field test (reference value: 13.2 +/- 3.1 secs); type: ADME, organism-based; settings: in vivo, 0.2 mg/kg, 0.75 h
[16] = tested on: Mus musculus; test: Sedative activity in sc dosed Kunming mouse assessed as center square duration distance at 50 ug/kg after 45 mins by open field test (reference value: 1.77 +/- 0.81 m); type: ADME, organism-based; settings: in vivo, 0.05 mg/kg, 0.75 h
[17] = tested on: Mus musculus; test: Sedative activity in sc dosed Kunming mouse assessed as center square duration distance at 100 ug/kg after 45 mins by open field test (reference value: 1.77 +/- 0.81 m); type: ADME, organism-based; settings: in vivo, 0.1 mg/kg, 0.75 h
[18] = tested on: Mus musculus; test: Sedative activity in sc dosed Kunming mouse assessed as center square duration distance at 200 ug/kg after 45 mins by open field test (reference value: 1.77 +/- 0.81 m); type: ADME, organism-based; settings: in vivo, 0.2 mg/kg, 0.75 h
[19] = tested on: Mus musculus; test: Sedative activity in sc dosed Kunming mouse assessed as crossing number at 25 ug/kg after 45 mins by open field test (reference value: 155 +/- 34); type: ADME, organism-based; settings: in vivo, 0.025 mg/kg, 0.75 h
[20] = Selectivity ratio of Ki for rat mu opioid receptor to Ki for human kappa opioid receptor
[21] = tested on: Mus musculus; test: Sedative activity in sc dosed Kunming mouse assessed as center square duration time at 25 ug/kg after 45 mins by open field test (reference value: 13.2 +/- 3.1 secs); type: ADME, organism-based; settings: in vivo, 0.025 mg/kg, 0.75 h
[22] = tested on: Mus musculus; test: Sedative activity in sc dosed Kunming mouse assessed as center square duration distance at 25 ug/kg after 45 mins by open field test (reference value: 1.77 +/- 0.81 m); type: ADME, organism-based; settings: in vivo, 0.025 mg/kg, 0.75 h

Chain of Mu-type opioid receptor (Rattus norvegicus) (P33535 whole entry): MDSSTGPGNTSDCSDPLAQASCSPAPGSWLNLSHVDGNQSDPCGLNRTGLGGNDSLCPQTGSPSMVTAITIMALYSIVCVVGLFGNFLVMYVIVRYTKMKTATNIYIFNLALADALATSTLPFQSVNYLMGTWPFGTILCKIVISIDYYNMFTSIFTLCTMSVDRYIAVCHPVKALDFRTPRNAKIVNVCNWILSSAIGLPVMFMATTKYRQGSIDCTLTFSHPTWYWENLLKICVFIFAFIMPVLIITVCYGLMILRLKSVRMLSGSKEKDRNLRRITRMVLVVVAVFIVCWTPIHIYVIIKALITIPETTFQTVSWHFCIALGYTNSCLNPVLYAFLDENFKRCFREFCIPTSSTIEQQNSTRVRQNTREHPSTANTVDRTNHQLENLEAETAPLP
T1 sequence (P41145 whole entry): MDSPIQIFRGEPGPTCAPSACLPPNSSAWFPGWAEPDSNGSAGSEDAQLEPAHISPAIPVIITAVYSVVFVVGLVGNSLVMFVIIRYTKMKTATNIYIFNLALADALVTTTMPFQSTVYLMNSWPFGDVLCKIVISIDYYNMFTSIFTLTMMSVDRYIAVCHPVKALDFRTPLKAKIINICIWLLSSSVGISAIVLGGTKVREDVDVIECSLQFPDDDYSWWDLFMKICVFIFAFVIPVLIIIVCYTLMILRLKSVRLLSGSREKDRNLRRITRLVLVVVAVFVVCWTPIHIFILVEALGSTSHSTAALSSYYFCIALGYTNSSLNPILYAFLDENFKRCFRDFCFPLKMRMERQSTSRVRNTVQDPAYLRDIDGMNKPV

| Compound | inhibition [1] | inhibition [2] | inhibition [3] | inhibition [4] | Ki [5] | other results |
| --- | --- | --- | --- | --- | --- | --- |
| O=C1CC(C(=O)N2CCc3ccccc3C2C[N+]2(Cc3ccc(Cl)cc3Cl)CCCC2)c2cc(Cl)ccc21 (stereo not drawn) | 10.4% | 0% | 31.9% | 12.1% | – | – |
| O=C1CC(C(=O)N2CCc3ccccc3C2C[N+]2(Cc3ccc(F)cc3)CCCC2)c2cc(Cl)ccc21 (stereo not drawn) | 0% | 0% | 13.1% | 0% | – | – |
| C=CC[N+]1(CC2c3ccccc3CCN2C(=O)C2CC(=O)c3ccc(Cl)cc32)CCCC1 (stereo not drawn) | 56.5% | 37.4% | 100% | 100% | 1.86 nM | – |
| C[N+]1(CC2c3ccccc3CCN2C(=O)C2CC(=O)c3ccc(Cl)cc32)CCCC1 (stereo not drawn) | 0% | 0% | 83.7% | 10.8% | > 10000 nM | – |
| COc1ccc2c(c1)CCN(C(=O)C1CC(=O)c3ccc(Cl)cc31)C2C[N+]1(C)CCCC1 (stereo not drawn) | 9.8% | 4% | 85.5% | 50% | – | – |
| CCCC[N+]1(CC2c3ccccc3CCN2C(=O)C2CC(=O)c3ccc(Cl)cc32)CCCC1.[I-] (stereo not drawn) | 62.4% | 28.8% | 100% | 100% | 0.94 nM | Activity [6]: 153; Activity [7]: 138; Activity [8]: 91; Ratio ED50 [9]: 40; ED50 [10]: 0.022 mg/kg; ED50 [11]: 0.24 mg/kg; Ratio ED50 [12]: 10.2; Time [13]: 17.4 s; Time [14]: 19.1 s; Time [15]: 27.4 s; Activity [16]: 1.02 m; Activity [17]: 1.92 m; Activity [18]: 1.93 m |
| COc1ccc2c(c1)C(C[N+]1(C)CCCC1)N(C(=O)C1CC(=O)c3ccc(Cl)cc31)CC2 (stereo not drawn) | 0% | 0% | 8.6% | 0% | – | – |
| O=C1CC(C(=O)N2CCc3ccccc3C2CN2CCCC2)c2cc(Cl)ccc21 (stereo not drawn) | – | – | – | – | 0.033 nM | Activity [19]: 71; Ratio Ki [20]: 21.1; ED50 [10]: 0.000406 mg/kg; ED50 [11]: 0.000568 mg/kg; Ratio ED50 [12]: 1.4; Time [21]: 27.1 s; Activity [22]: 1.21 m |
| C[N+]1(CC2c3ccc(O)cc3CCN2C(=O)C2CC(=O)c3ccc(Cl)cc32)CCCC1 (stereo not drawn) | 34.5% | 8.2% | 87.7% | 67.3% | 231 nM | – |
| CC[N+]1(CC2c3ccccc3CCN2C(=O)C2CC(=O)c3ccc(Cl)cc32)CCCC1 (stereo not drawn) | 0% | 0% | 89.1% | 31.9% | – | – |
| O=C1CC(C(=O)N2CCc3ccccc3C2C[N+]2(Cc3ccc(Cl)cc3)CCCC2)c2cc(Cl)ccc21 (stereo not drawn) | 10% | 0% | 89.3% | 31.3% | – | – |
| O=C1CC(C(=O)N2CCc3ccccc3C2C[N+]2(CC3CC3)CCCC2)c2cc(Cl)ccc21 (stereo not drawn) | 48% | 29.2% | 100% | 98.8% | 3.56 nM | – |
| COc1ccc(C[N+]2(CC3c4ccccc4CCN3C(=O)C3CC(=O)c4ccc(Cl)cc43)CCCC2)cc1 (stereo not drawn) | 9.8% | 0% | 83% | 3.9% | – | – |
| C[N+]1(CC2c3cc(F)ccc3CCN2C(=O)C2CC(=O)c3ccc(Cl)cc32)CCCC1 (stereo not drawn) | 26.5% | 8.9% | 97.4% | 86% | 138 nM | – |
| O=C1CC(C(=O)N2CCc3ccccc3C2C[N+]2(Cc3ccccc3)CCCC2)c2cc(Cl)ccc21 (stereo not drawn) | 0% | 0% | 86% | 43.1% | – | – |
